Test results published in patent US5854252A, “Dihalotriazolopyrimidine derivatives” (Shell Internationale Research Maatschappij B.V., priority 1993, dated 1998).
In brackets after ≈: the same amount, converted by molar mass.

Assays:
Pyricularia oryzae = format: in vivo; settings: rice, therapeutic foliar spray, 1000 ppm
[1] = tested on: Pseudocercosporella herpotrichoides; test: Activity against wheat eyespot in-vitro (PHI), Example 53(j); format: cell-based; settings: 50 ppm, 12 days at 20° C.
Protocol: This test measures the in vitro activity of compounds against the fungus causing wheat eyespot. The test compound is dissolved or suspended in acetone and is added into 4 ml aliquots of half strength Potato Dextrose Broth dispensed in 25-compartment petri dishes to give a final concentration of 50 ppm compound and 2.5% acetone. Each compartment is inoculated with a 6 mm diameter plug of agar/mycelium taken from a 14 day old culture of P. herpotrichoides. Plates are incubated at 20° C. for 12 days until the assessment of mycelial growth. The extent of disease control in all the above tests is expressed as a rating compared with either an untreated control or a diluent-sprayed-control, according to the criteria: […]

Puccinia arachidis = test: Field pot test with Puccinia arachidis on peanuts; format: in vivo; settings: topical, 456 h, 500 μg/ml spray, 1000 l/ha, 19 days after treatment, Abbott formula, read-out: % efficacy Puccinia arachidis
Protocol: 15 seeds of peanuts were sown in pots filled with a soil substrate. When the plants have developed 4 true leaves the fungicides and the test compounds were applied using a hand sprayer. The test compounds were applied at a concentration of 500 μg/ml in a […] containing 10% acetone and 0.05% Triton X 155 in water. The total amount of […] corresponded to 1000 l/ha. Six replicates per treatment were used. 2 Days after treatment the pots were exposed to peanut plants in the field on which the fungus, Puccinia arachidis, had formed sporulating pustules on the leaves. The assessment was carried out 19 days after treatment by estimating the percentage of infected leaf area. The % efficacy was calculated using the Abbott formula.

Cercospora arachidicola = test: Field pot test with Cercospora arachidicola on peanuts; format: in vivo; settings: Mycosphaerella arachidis, topical, 360 h, 500 μg/ml spray, 1000 l/ha, 15 days after treatment, Abbott formula, read-out: % efficacy Cercospora arachidicola
Protocol: 15 Seeds of peanuts were sown in pots filled with a soil substrate. When the plants have developed 4 true leaves (approx. 12-14 days after seeding) the fungicides and the test compounds were applied using a hand sprayer. The test compounds were applied at a concentration of 500 μg/ml in a […] containing 10% acetone and 0.05% Triton X 155 in water. The total amount of […] corresponded to 1000 l/ha. Six replicates (pots) per treatment were used. 2 days after treatment the pots were exposed to peanut plants in the field on which the fungus, Cercospora arachidicola, had formed sporulating lesions. The assessment was carried out 15 days after treatment by estimating the percentage of infected leaf area. The % efficacy was calculated using the Abbott formula.

[2] = tested on: Erysiphe graminis f.sp. hordei; test: Activity against barley powdery mildew (EG), Example 53(h); format: in vivo; settings: therapeutic foliar spray, 1000 ppm
Protocol: The test is a direct therapeutic one, using a foliar spray. Leaves of barley seedlings, (cv. Golden Promise) are inoculated by dusting with mildew conidia one day prior to treatment with the test compound. The inoculated plants are kept overnight at glasshouse ambient temperature and humidity prior to treatment. The plants are sprayed with the test compound at a dosage of 1000 ppm using an automated sprayline as described under (a). After drying, plants are returned to a compartment at 20°-25 ° C. and moderate humidity for up to 7 days, followed by assessment. Assessment is based on the percentage of leaf area covered by sporulation compared with that on leaves of control plants. The extent of disease control in all the above tests is expressed as a rating compared with either an untreated control or a diluent-sprayed-control, according to the criteria: […]

[3] = tested on: Pseudocercosporella herpotrichoides; test: MIC by serial dilution, Example 55, Pseudocercosporella herpotrichoides; format: cell-based; settings: Oculimacula yallundae; microtitre plates, 20° C., 6-8 days
Protocol: (§1) The MIC (Minimum Inhibition Concentration)-values were determined by serial dilution tests using 48-well microtitre plates. The dilution of the test compounds in the nutrient solution and the distribution to the wells were carried out by a TECAN RSP 5000 robotic sample processor.
(§2) For preparation of the nutrient solution, V8 juice (Trade Mark) was neutralised with calcium carbonate and centrifuged. The supernatant was diluted with distilled water (1:5) to the final concentration.
(§3) The fungi (Alternaria solani, Botrytis cinerea, Pseudocercosporella herpotrichoides, Micronectriella nivalis, Gaeumannomyces graminis) were added into the wells as a droplet of spore suspension. The microtitre plates were then incubated at 20° C. for 6-8 days. The MIC-value, which was defined to be the lowest concentration in the dilution series without mycelial growth, was determined by visual inspection of the plates.

Micronectriella nivalis = test: MIC by serial dilution, Example 55, Micronectriella nivalis; format: cell-based; settings: microtitre plates, 20° C., 6-8 days
Protocol: as §1, §2, §3

Gaeumannomyces graminis = test: MIC by serial dilution, Example 55, Gaeumannomyces graminis; format: cell-based; settings: microtitre plates, 20° C., 6-8 days
Protocol: as §1, §2, §3

Plasmopara viticola [4] = test: Antisporulant activity against vine downy mildew (PVA), Example 53(a); format: in vivo; settings: antisporulant foliar spray, 1000 ppm
Protocol: The test is a direct antisporulant one using a foliar spray. The lower surface of leaves of whole vine plants (cv Cabernet Sauvignon) are inoculated by spraying with an aqueous suspension containing 2.5×10^4 zoosporangia/ml two days prior to treatment with the test compound. The inoculated plants are kept for 24 hours in a high humidity compartment, then 24 hours at glasshouse ambient temperature and humidity. Infected leaves are sprayed on their lower surfaces with a solution of active material in 1:1 water/acetone containing 0.04% "TWEEN 20" (Trade Mark; a polyoxyethylene sorbitan ester surfactant). Plants are treated using an automated sprayline with an atomising nozzle. The concentration of the compound is 1000 ppm, and the spray volume is 700 l/ha. After spraying, the plants are returned to normal glasshouse conditions for 96 hours and are then transferred to the high humidity cabinet for 24 hours to induce sporulation, prior to assessment. Assessment is based on the percentage of the leaf area covered by sporulation compared with that on control leaves. The extent of disease control in all the above tests is expressed as a rating compared with either an untreated control or a diluent-sprayed-control, according to the criteria: […]

Plasmopara viticola [5] = test: Antisporulant activity against vine downy mildew (PVA), Example 54(a); format: in vivo; settings: antisporulant foliar spray, 600 ppm
Protocol: The test is a direct antisporulant one using a foliar spray. The lower surface of leaves of vine plants (cv. Cabernet Sauvignon), approximately 8 cm high, are inoculated with an aqueous suspension containing 5×10^4 zoosporangia/ml. The inoculated plants are kept for 24 hours at 21° C. in a high humidity cabinet, then for 24 hours in a glasshouse at 20° C. and 40% relative humidity. Infected leaves are sprayed on their lower surfaces with a solution of the test compound in 1:1 water/acetone containing 0.04% "TWEEN 20" (Trade Mark; a polyoxyethylene sorbitan ester surfactant). Plants are sprayed using a track sprayer equipped with 2 air-atomising nozzles. The concentration of the compound is 600 ppm and the spray volume is 750 l/ha. After drying, the plants are returned to the glasshouse at 20° C. and 40% relative humidity for 96 hours and are then transferred to the high humidity cabinet for 24 hours to induce sporulation. Assessment is based on the percentage of the leaf area covered by sporulation compared with that on control leaves. The extent of disease control in all the above tests is expressed as a rating compared with either an untreated control or a diluent-sprayed-control, according to the criteria: […]

Leptosphaeria nodorum = test: Activity against wheat leafspot (LN), Example 54(e); format: in vivo; settings: therapeutic foliar spray as under (a) (600 ppm)
Protocol: The test is a direct therapeutic one using a foliar spray. Wheat seedlings (cv Norman), at the single leaf stage, are inoculated with an aqueous suspension containing 1.5×10^6 conidia/ml. The inoculated plants are kept for 24 hours at 20° C. in a high humidity cabinet, followed by spraying with the test compound as described under (a). After drying, the plants are kept for 6-8 days in the glasshouse at 22° C. and 70% relative humidity. Assessment is based on the density of lesions per leaf compared with that on leaves of control plants. The extent of disease control in all the above tests is expressed as a rating compared with either an untreated control or a diluent-sprayed-control, according to the criteria: […]

CC(C)c1ccc(-c2c(Cl)nc3ncnn3c2Cl)cc1 [Example 8]
Fungicidal Activity PO (disease control rating) (Pyricularia oryzae): 1 (about 50-80% disease control)
Fungicidal Activity PHI (disease control rating) [1]: 2 (greater than 80% disease control)
pest or weed control at 500 µg/mL (Puccinia arachidis): 17%
pest or weed control at 500 µg/mL (Cercospora arachidicola): 33%

Clc1nc2ncnn2c(Cl)c1-c1cccs1 [Example 26]
Fungicidal Activity EG (disease control rating) [2]: 1 (about 50-80% disease control)
Fungicidal Activity PHI (disease control rating) [1]: 2 (greater than 80% disease control)
MIC [3]: 6.25 µg/mL (≈ 23.1 µM)
MIC (Micronectriella nivalis): 0.78 µg/mL (≈ 2.88 µM)
MIC (Gaeumannomyces graminis): 0.39 µg/mL (≈ 1.44 µM)

Clc1nc2ncnn2c(Cl)c1-c1ccccc1OCc1ccccc1 [Example 20]
Fungicidal Activity PVA (disease control rating) (Plasmopara viticola [4]): 2 (greater than 80% disease control)
Fungicidal Activity PHI (disease control rating) [1]: 1 (about 50-80% disease control)

Cc1ccccc1-c1c(Cl)nc2ncnn2c1Cl [Example 29]
PVA (disease control rating) (Plasmopara viticola [5]): 1 (50-80% disease control)
MIC [3]: 12.5 µg/mL (≈ 44.8 µM)
MIC (Micronectriella nivalis): 6.25 µg/mL (≈ 22.4 µM)
MIC (Gaeumannomyces graminis): 1.56 µg/mL (≈ 5.59 µM)

Clc1ccccc1-c1c(Br)nc2ncnn2c1Br [Example 2, 5,7-dibromo-6-(2-chlorophenyl)-1,2,4-triazolo[1,5a]pyrimidine]
LN (disease control rating) (Leptosphaeria nodorum): 1 (50-80% disease control)

Clc1ccc(-c2c(Cl)nc3ncnn3c2Cl)c(Cl)c1 [Example 35]
LN (disease control rating) (Leptosphaeria nodorum): 1 (50-80% disease control)
MIC [3]: 6.25 µg/mL (≈ 18.7 µM)
MIC (Micronectriella nivalis): 0.39 µg/mL (≈ 1.17 µM)
MIC (Gaeumannomyces graminis): 0.39 µg/mL (≈ 1.17 µM)
